Assays:
lipoamide = compound: NC(=O)CCCCC1CCSS1 [lipoamide]; experiment: thermal stability z-score vs DMSO; higher = more thermally stabilized by treatment; conditions: HeLa, lipoamide concentration 100 µM
Experimental: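 Cellular thermal proteome profiling in HeLa cells. Cells were treated with 100 µM lipoamide for 1 h, with or without 1 mM arsenate for a further 1 h, then heated to ten temperatures (37-66.3 °C), and soluble protein was quantified by TMT mass spectrometry relative to 0.1% DMSO controls. The thermal stability score (sum of log2 fold changes minus the abundance score) was transformed to a z-score; mean of n = 3 experiments.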

potassium arsenate = compound: O=[As]([O-])(O)O.[K+] [potassium arsenate]; experiment: as above; conditions: HeLa; arsenate concentration 1 mM
Experimental: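 Cellular thermal proteome profiling in HeLa cells treated with 1 mM arsenate for 1 h (DMSO pretreatment), heated to ten temperatures (37-66.3 °C). Soluble protein was quantified by TMT mass spectrometry relative to DMSO controls; the thermal stability score was transformed to a z-score; mean of n = 3 experiments.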

[1] = arsenate co-treatment: 1 mM arsenate 1 h
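Note: each temperature applied for 3 min, abundance score taken as mean log2 fold change at the two lowest temperatures, z-score obtained by mean subtraction and division by SD.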

Chain of UniProt O75420 (O75420 whole entry): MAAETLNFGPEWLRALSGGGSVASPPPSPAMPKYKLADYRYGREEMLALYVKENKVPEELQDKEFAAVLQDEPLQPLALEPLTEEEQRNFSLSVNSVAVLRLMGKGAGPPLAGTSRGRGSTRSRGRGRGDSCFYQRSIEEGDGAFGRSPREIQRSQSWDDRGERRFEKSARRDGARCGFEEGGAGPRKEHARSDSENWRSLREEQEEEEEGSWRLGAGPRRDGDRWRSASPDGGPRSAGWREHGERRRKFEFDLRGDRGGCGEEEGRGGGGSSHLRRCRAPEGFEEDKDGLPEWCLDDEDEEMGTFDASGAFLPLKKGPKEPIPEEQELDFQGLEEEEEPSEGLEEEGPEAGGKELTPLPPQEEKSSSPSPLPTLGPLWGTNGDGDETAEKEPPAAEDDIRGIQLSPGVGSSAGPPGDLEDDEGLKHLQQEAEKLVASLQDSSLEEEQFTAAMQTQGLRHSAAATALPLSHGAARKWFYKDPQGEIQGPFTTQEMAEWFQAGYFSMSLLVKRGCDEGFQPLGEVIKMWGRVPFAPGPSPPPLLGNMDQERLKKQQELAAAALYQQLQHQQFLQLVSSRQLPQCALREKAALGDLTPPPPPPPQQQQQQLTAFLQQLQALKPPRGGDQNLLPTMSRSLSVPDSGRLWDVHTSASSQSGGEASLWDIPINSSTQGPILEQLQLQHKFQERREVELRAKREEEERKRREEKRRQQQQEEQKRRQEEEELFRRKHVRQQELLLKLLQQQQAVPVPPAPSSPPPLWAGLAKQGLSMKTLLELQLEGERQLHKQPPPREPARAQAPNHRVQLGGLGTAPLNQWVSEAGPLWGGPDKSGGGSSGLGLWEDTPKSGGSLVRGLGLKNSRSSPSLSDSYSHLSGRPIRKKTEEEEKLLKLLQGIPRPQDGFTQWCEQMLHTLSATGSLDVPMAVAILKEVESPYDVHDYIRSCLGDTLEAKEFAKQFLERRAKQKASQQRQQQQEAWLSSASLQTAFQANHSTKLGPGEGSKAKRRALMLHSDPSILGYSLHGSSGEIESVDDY
Chain of UniProt Q96BY7 (Q96BY7 whole entry): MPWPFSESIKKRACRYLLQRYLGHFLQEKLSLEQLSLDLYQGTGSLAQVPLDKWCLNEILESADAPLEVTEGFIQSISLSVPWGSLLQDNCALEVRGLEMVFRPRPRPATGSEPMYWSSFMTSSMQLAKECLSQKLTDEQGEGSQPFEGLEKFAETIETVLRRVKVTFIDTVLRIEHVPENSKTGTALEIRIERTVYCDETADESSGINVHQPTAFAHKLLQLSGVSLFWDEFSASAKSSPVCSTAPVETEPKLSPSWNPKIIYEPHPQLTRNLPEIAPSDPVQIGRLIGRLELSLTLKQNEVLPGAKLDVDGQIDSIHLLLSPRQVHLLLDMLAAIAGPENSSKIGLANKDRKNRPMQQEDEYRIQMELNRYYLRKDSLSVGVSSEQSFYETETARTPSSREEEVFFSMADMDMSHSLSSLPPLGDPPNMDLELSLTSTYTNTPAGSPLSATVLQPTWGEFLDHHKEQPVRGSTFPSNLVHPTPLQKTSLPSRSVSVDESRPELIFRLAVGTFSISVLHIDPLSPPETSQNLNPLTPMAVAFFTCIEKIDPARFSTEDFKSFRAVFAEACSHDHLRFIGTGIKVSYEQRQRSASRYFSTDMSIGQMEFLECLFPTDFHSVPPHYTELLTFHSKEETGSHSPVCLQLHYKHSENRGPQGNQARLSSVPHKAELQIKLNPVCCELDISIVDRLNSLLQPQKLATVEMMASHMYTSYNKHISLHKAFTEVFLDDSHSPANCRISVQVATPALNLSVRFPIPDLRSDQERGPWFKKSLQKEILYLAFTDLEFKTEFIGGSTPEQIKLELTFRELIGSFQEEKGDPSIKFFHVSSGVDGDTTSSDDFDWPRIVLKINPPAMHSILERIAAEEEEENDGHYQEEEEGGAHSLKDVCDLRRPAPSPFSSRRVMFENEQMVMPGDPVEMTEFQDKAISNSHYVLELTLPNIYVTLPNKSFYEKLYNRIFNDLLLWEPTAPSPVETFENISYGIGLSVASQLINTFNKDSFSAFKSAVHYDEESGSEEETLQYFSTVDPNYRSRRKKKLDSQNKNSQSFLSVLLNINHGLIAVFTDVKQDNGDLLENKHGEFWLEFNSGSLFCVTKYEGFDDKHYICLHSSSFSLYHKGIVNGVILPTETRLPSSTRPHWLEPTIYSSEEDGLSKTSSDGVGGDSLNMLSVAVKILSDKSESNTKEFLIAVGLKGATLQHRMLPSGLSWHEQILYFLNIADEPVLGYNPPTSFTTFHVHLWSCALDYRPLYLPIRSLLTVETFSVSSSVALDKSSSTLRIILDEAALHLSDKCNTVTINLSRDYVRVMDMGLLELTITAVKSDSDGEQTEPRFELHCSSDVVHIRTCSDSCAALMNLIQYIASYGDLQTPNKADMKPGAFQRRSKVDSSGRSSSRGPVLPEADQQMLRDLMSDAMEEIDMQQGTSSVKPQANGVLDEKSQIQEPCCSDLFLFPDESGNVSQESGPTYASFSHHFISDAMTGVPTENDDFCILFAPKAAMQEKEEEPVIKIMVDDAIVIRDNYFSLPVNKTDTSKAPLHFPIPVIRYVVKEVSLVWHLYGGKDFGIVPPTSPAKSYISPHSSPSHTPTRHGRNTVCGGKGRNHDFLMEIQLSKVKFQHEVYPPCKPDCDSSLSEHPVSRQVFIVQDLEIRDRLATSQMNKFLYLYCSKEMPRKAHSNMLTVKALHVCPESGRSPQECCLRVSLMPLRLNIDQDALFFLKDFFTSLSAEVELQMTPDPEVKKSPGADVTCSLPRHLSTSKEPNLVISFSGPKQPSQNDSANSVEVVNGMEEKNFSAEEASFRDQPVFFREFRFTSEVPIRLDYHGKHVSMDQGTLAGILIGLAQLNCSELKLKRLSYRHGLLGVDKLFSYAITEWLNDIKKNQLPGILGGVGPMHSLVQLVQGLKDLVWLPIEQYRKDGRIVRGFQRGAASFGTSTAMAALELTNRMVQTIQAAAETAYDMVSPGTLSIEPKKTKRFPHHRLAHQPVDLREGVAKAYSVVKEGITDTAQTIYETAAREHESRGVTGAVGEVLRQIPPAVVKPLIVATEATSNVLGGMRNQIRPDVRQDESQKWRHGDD
Chain of UniProt Q9Y450 (Q9Y450 whole entry): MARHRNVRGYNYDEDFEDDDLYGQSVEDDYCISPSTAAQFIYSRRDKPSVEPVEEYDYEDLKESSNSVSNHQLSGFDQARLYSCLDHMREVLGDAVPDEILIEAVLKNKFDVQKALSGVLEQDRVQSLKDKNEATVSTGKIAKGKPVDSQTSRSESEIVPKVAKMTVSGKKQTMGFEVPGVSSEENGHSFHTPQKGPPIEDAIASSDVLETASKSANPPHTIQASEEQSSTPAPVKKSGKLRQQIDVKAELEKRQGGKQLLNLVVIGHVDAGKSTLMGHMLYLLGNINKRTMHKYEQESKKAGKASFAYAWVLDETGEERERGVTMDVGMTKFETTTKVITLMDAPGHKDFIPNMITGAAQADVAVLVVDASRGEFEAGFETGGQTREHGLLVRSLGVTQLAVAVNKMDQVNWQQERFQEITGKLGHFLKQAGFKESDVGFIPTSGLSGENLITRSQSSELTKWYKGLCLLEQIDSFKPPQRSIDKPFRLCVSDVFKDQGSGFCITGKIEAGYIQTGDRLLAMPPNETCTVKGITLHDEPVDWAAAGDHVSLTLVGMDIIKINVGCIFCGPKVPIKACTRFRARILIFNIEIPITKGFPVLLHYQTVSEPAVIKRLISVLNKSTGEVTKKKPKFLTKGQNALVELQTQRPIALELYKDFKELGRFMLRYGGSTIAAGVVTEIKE
Chain of UniProt Q9H4L5 (Q9H4L5 whole entry): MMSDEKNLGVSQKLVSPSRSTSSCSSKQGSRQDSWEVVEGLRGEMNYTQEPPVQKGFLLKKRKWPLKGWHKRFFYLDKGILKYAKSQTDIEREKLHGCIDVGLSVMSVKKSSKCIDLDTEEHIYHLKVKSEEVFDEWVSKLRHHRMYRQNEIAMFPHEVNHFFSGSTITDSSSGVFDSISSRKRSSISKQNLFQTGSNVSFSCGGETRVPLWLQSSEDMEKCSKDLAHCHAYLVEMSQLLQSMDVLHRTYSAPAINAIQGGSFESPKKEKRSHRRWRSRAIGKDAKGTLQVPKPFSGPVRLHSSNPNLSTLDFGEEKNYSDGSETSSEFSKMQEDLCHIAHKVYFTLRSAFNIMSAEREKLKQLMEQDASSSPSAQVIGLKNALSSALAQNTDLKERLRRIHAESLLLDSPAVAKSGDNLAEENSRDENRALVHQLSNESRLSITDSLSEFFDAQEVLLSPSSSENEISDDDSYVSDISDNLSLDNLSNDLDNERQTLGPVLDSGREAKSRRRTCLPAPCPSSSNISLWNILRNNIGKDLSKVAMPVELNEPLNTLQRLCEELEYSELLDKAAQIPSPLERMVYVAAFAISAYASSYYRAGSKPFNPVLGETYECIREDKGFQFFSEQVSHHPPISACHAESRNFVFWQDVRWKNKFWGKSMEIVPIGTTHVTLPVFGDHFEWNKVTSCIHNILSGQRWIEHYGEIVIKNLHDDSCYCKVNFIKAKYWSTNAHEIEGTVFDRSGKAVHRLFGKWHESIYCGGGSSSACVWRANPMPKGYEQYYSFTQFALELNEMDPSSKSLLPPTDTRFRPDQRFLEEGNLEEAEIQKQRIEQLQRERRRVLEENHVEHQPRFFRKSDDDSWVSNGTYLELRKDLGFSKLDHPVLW
Chain of UniProt P15407 (P15407 whole entry): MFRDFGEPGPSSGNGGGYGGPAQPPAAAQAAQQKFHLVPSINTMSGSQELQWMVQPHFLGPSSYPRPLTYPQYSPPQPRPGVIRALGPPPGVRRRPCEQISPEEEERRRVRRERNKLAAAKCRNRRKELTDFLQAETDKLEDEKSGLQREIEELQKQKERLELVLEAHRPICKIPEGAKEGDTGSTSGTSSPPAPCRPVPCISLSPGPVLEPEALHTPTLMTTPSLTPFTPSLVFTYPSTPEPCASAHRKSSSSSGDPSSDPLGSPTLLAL
Chain of UniProt Q9Y5V0 (Q9Y5V0 whole entry): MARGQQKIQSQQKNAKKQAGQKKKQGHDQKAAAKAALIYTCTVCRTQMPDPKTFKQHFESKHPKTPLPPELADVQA

Target	thermal stability z-score (lipoamide; [1])	thermal stability z-score (lipoamide; arsenate co-treatment: none)	thermal stability z-score (potassium arsenate)
PPT1 (UniProt P50897)	-0.494	-0.324	-0.00594
ATG4B (UniProt Q9Y4P1)	0.0217	-0.419	-0.73
RRP7A (UniProt Q9Y3A4)	0.108	-0.213	-0.216
VPS33A (UniProt Q96AX1)	-0.0394	-0.0312	-0.027
FOSL1 (UniProt P15407)	0.361	-0.0186	-0.444
GIGYF1 (UniProt O75420)	0.0328	0.0305	0.0812
ITPRIP (UniProt Q8IWB1)	-0.976	-0.936	-0.289
CENPV (UniProt Q7Z7K6)	0.172	0.192	-0.0535
OSBPL3 (UniProt Q9H4L5)	-1.67	-0.909	-0.969
ILK (UniProt Q13418)	0.201	-0.00153	0.129
SLC39A7 (UniProt Q92504)	-1.65	-0.943	-0.00591
ABCA2 (UniProt Q9BZC7)	0.0542	0.0722	-0.0916
KTI12 (UniProt Q96EK9)	0.014	-0.222	-0.224
HBS1L (UniProt Q9Y450)	0.179	0.0726	-0.278
USP4 (UniProt Q13107)	-0.209	-0.11	-0.141
CLU (UniProt P10909)	-1.81	-2.08	0.0163
EHMT2 (UniProt Q96KQ7)	0.132	0.0958	-0.273
HSPA8 (UniProt P11142)	-0.0626	0.357	-0.107

Target	thermal stability z-score (lipoamide; [1])	thermal stability z-score (lipoamide; arsenate co-treatment: none)	thermal stability z-score (potassium arsenate)
POLD1 (UniProt P28340)	0.0404	-0.203	-0.1
EIF2S1 (UniProt P05198)	-0.375	-0.142	0.0905
CLASP1 (UniProt Q7Z460)	-0.602	-0.311	-0.0658
ABHD12 (UniProt Q8N2K0)	-0.435	-0.517	-0.351
GSPT1 (UniProt P15170)	-0.00711	0.472	0.226
IKBKB (UniProt O14920)	-0.0799	-0.108	-0.426
SPTLC2 (UniProt O15270)	-0.0734	-0.585	-0.25
SSRP1 (UniProt Q08945)	1.24	2.15	1.4
FNDC3A (UniProt Q9Y2H6)	-0.542	0.324	0.846
ATG2B (UniProt Q96BY7)	-0.149	0.0605	-0.0277
BID (UniProt P55957)	0.895	1.36	0.587
CS (UniProt O75390)	-0.341	0.0055	0.561
ARHGAP21 (UniProt Q5T5U3)	-0.57	-0.749	-1.3
LIMD1 (UniProt Q9UGP4)	-1.08	-0.705	-5.26
ATL2 (UniProt Q8NHH9)	-0.223	-0.0585	0.103
ZNF706 (UniProt Q9Y5V0)	1.04	0.371	0.0846
GPCPD1 (UniProt Q9NPB8)	0.65	0.136	2.8

Reference: the supplement of paper PMC12463676, “Small-molecule dissolution of stress granules by redox modulation benefits ALS models” (Nature Chemical Biology, 2025)
